Laboratory results as given in ChEMBL document CHEMBL1148902, “A cytotoxic cyclic heptapeptide from the seeds of Annona cherimola” (J Nat Prod, 2004).
Where a SMILES comes first, the peptide text is derived from it.

System: KB
Experiment: Cytotoxicity against human KB cells
Assay type: functional, cell-based

Structure (SMILES)	IC50
CC[C@H](C)[C@@H]1NC(=O)[C@H](Cc2c[nH]c3ccccc23)NC(=O)[C@H](C)NC(=O)[C@H](C)NC(=O)CNC(=O)[C@@H]2CCCN2C(=O)[C@@H]2CCCN2C1=O [CHERIMOLACYCLOPEPTIDE C] (cyclo(AAWIPPG))	72 nM
COc1cccc2c1C(=O)c1c(O)c3c(c(O)c1C2=O)C[C@@](O)(C(=O)CO)C[C@@H]3O[C@H]1C[C@H](N)[C@H](O)[C@H](C)O1 [DOXORUBICIN]	20 nM
